The source of these data is ChEMBL document CHEMBL4419120, “Bitter taste receptors” (2015).

Holding throughout (assay type): functional, cell-based
Assay [1] has as its target T1, Taste receptor type 2 member 10 (Homo sapiens) (UniProt Q9NYW0).
T1 sequence (whole entry): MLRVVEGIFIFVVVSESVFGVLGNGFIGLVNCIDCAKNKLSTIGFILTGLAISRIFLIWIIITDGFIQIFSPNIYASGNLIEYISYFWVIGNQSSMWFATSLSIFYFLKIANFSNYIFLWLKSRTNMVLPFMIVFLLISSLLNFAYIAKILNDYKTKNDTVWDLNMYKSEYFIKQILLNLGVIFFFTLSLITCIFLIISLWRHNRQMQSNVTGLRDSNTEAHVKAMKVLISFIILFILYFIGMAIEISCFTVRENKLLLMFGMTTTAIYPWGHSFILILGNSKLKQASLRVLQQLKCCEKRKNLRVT
Description: Activity at human TAS2R10 expressed in HEK-293T-Galpha16-gustducin44 cells assessed as threshold concentration of compound at which point receptor detects compounds by measuring calcium response by FLIPR assay.

The target of assay [2] is T2, Taste receptor type 2 member 45 (Homo sapiens) (UniProt P59539).
T2 sequence (whole entry): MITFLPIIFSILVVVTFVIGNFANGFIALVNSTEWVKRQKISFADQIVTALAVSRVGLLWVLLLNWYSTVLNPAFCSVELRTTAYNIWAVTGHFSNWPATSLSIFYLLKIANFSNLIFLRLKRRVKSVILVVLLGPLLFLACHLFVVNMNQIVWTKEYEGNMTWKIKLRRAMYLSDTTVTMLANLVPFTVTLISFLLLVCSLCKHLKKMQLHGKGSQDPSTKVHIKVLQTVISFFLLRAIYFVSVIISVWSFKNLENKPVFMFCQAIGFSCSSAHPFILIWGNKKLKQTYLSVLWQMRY
Description: Activity at human TAS2R45 expressed in HEK-293T-Galpha16-gustducin44 cells assessed as threshold concentration of compound at which point receptor detects compounds by measuring calcium response by FLIPR assay.

Assay [3] addresses T3, Taste receptor type 2 member 46 (Homo sapiens) (UniProt P59540).
T3 sequence (whole entry): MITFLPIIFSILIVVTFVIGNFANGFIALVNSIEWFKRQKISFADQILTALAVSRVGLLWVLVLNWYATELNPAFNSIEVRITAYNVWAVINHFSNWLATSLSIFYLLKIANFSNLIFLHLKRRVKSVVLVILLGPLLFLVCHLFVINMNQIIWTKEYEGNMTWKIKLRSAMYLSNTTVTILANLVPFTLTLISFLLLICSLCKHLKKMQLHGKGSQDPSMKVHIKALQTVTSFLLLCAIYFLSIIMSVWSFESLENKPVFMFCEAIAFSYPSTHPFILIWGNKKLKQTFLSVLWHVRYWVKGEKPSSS
Description: Activity at human TAS2R46 expressed in HEK-293T-Galpha16-gustducin44 cells assessed as threshold concentration of compound at which point receptor detects compounds by measuring calcium response by FLIPR assay.

Assay [4] has as its target T4, Taste receptor type 2 member 19 (Homo sapiens) (UniProt P59542).
T4 sequence (whole entry): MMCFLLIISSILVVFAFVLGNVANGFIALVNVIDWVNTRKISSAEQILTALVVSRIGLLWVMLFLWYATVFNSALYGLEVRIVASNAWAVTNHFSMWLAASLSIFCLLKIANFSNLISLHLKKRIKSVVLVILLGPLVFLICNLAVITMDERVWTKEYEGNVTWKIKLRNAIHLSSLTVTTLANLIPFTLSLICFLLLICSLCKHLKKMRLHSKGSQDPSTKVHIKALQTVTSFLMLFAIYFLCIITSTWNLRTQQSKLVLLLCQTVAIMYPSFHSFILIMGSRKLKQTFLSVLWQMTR
Put plainly: Activity at human TAS2R48 expressed in HEK-293T-Galpha16-gustducin44 cells assessed as threshold concentration of compound at which point receptor detects compounds by measuring calcium response by FLIPR assay.

For the compound `CC1=C[C@@H]2[C@@H]3C4C(=C(C)[C@@H]3[C@@]13[C@@H]2[C@@](C)(O)CC[C@H]1[C@H](C)C(=O)O[C@@H]13)[C@H]1OC(=O)[C@@H](C)[C@@H]1CC[C@]4(C)O` (some centres undefined), the Activity stood at 0.01 mM in assay [1], 0.003 mM in assay [2], 0.001 mM in assay [3] and 0.03 mM in assay [4].
